According to patent EP0973746B1, “SUBSTITUTED 3-CYANO QUINOLINES” (Wyeth Holdings Corporation, priority 1997, dated 1998):
In brackets after ≈: the same amount, converted by molar mass. Several values for one entry are separate records, joined by “and”; a condition that tells them apart may be missing. Equal entries are not always repeated. Where two headings read alike, the source gives them in different places.

Tests used:
[1] = target: recombinant human MEK 1 (MAPKK) and recombinant human ERK2 (MAPK); assay: Mitogen Activated Protein Kinase (MAPK) assay, two component coupled MEK 1 / ERK2; type: biochemical; conditions: separate entries for the same compound = evaluated more than one time;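 note: MEK 1-activated ERK2 phosphorylates MBP or Myc peptide with 33P-ATP, filter capture and scintillation counting, inhibitor preincubated with ERK2 30 min at 0 °C, inhibition relative to uninhibited control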
[2] = target: T1, Kinase insert Domain containing Receptor (KDR: the catalytic domain of the VEGF receptor) (Homo sapiens, UniProt P35968); assay: Inhibition of Kinase insert Domain containing Receptor (KDR); type: biochemical;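 note: KDR phosphorylating a Glu:Tyr 4:1 copolymer with P32- or P33-labelled ATP, Mg++ and vanadate, read as acid-insoluble radiolabel, compared with compound-free reaction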
T1 construct: KDR: the catalytic domain of the VEGF receptor
Protocol: In this standard pharmacological test procedure, KDR protein is mixed, in the presence or absence of a inhibitor compound, with a substrate peptide to be phosphorylated (a copolymer of glutamic acid and tyrosine, E:Y :: 4:1) and other cofactors such as Mg^++ and sodium vanadate (a protein tyrosine phosphatase inhibitor) in an appropriate buffer to maintain pH (7.2). ATP and a radioactive tracer (either P^32-or P^33- labeled ATP) is then add to initiate phosphorylation. After incubation, the radioactive phosphate associated with the acid-insoluble fraction of the assay mixture is then quantified as reflection of substrate phosphorylation.

[3] = target: T2, His-tagged cytoplasmic domain of EGFR (Homo sapiens, UniProt P00533); assay: Inhibition of Epidermal Growth Factor Receptor Kinase (EGF-R) using recombinant enzyme; type: biochemical; conditions: recombinant enzyme; RR-SRC peptide; average of the number of tests; read-out: IC50;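 note: radiometric kinase assay measuring radiolabeled phosphate transfer from ATP onto the peptide tyrosine by scintillation counting, control is reaction without compound, background subtracted, IC50 from dose-response curve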
T2 construct: containing the EGFR cDNA encoding amino acids 645 - 1186 preceded by Met-Ala-(His)6; made in house; host or cells: Sf9 cells, recombinant baculovirus vHcEGFR52

A431 = assay: Inhibition of cancer cell growth as measured by cell number, A431; type: cell-based, human; conditions: Homo sapiens, A-431, 48 h, Table 8;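 note: human A431 line, picked because it overexpresses epidermal growth factor receptor (EGFR)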
Description: (§1) The cell lines were chosen since they overexpressed epidermal growth factor receptor (EGFR) (i.e. A431) or HER2/neu (SKBR3), or had little to no expression of the these receptors (SW620, LOX, MCF7).

SKBR3 = assay: Inhibition of cancer cell growth as measured by cell number, SKBR3; type: cell-based, human; conditions: Homo sapiens, Table 8;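 note: SK-BR-3 cells were selected as a line overexpressing HER2/neu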
Description: as §1

MCF7 = assay: Inhibition of cancer cell growth as measured by cell number, MCF7; type: cell-based, human; conditions: Homo sapiens, MCF7, 48 h, Table 8;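 note: MCF7 was included as a line with little or no EGFR or HER2/neu expression, in contrast to the receptor-overexpressing lines of the panel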
Description: as §1

SW620 = assay: Inhibition of cancer cell growth as measured by cell number, SW620; type: cell-based, human; conditions: Homo sapiens, SW-620, 48 h, Table 8;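 note: SW620 was included as a cell line with little or no EGFR or HER2/neu expression, in contrast to receptor-overexpressing lines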
Description: as §1

LOX = assay: Inhibition of cancer cell growth as measured by cell number, LOX; type: cell-based, human; conditions: Homo sapiens, LOX, 48 h, Table 8;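 note: LOX cells served as a line with low or absent EGFR and HER2/neu expression, in contrast to receptor-overexpressing lines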
Description: as §1

[4] = pH 7.2, radioactive format, read-out: KDR IC50 (converted)
[5] = cell number, Sulforhodamine B, 48 hours exposure, read-out: IC50 A431
[6] = SK-BR-3, cell number, Sulforhodamine B, 48 hours exposure, read-out: IC50 SKBR3
[7] = cell number, Sulforhodamine B, 48 hours exposure, read-out: IC50 MCF7
[8] = cell number, Sulforhodamine B, 48 hours exposure, read-out: IC50 SW620
[9] = cell number, Sulforhodamine B, 48 hours exposure, read-out: IC50 LOX
[10] = read-out: IC50 A431, cell number, Sulforhodamine B, 48 hours exposure
[11] = SK-BR-3, 48 h, read-out: IC50 SKBR3, cell number, Sulforhodamine B, 48 hours exposure
[12] = read-out: IC50 MCF7, cell number, Sulforhodamine B, 48 hours exposure
[13] = read-out: IC50 SW620, cell number, Sulforhodamine B, 48 hours exposure
[14] = read-out: IC50 LOX, cell number, Sulforhodamine B, 48 hours exposure

T2 sequence (P00533 669-1210): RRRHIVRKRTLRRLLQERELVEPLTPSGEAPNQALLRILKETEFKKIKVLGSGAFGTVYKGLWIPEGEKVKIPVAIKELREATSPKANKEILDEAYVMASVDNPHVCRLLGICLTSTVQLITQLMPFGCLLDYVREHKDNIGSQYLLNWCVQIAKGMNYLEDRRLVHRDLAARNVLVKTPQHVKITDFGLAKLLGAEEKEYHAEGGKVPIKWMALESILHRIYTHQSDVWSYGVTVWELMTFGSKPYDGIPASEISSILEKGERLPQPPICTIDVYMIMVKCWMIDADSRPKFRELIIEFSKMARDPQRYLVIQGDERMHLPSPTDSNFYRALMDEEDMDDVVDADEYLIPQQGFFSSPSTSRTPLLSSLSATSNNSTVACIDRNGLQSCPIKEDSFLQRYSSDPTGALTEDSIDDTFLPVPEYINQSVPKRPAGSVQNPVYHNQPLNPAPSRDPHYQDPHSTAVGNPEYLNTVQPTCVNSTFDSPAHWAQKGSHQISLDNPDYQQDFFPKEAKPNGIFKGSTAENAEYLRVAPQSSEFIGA
T1 sequence (P35968 834-1162 limits assumed): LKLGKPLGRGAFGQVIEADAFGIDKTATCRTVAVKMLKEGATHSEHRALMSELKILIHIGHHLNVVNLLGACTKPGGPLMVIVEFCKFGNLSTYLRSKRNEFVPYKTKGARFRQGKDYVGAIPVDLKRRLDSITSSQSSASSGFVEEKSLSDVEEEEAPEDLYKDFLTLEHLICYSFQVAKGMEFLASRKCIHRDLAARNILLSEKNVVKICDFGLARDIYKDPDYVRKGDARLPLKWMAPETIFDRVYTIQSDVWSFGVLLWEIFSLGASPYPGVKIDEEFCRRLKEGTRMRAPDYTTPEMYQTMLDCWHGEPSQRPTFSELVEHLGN

Row | SMILES | IC50 [1] | IC50 [2, 4] [µM] | IC50 [3] [µM] | IC50 (A431; [10]) [µg/mL] | IC50 (SKBR3; [11]) [µg/mL] | IC50 (MCF7; [12]) [µg/mL] | IC50 (SW620; [13]) [µg/mL] | IC50 (LOX; [14]) [µg/mL] | also measured
1 | COc1cccc2c(Nc3c(F)cc(F)cc3F)c(C#N)cnc12 [Example 280, 8-Methoxy-4-(2,4,6-trifluoro-phenylamino)-quinoline-3-carbonitrile] | > 100 µM | > 91.1 | – | – | – | – | – | – | –
2 | N#Cc1cnc2ccc(NC(=O)C#CCO)cc2c1Nc1cccc(Br)c1 [Example 332] | 25 µM and < 50 µM | – | 0.0009 | – | – | – | – | – | IC50 (A431; [5]): 0.6 µg/mL (≈ 1.42 µM); IC50 (SKBR3; [6]): 0.08 µg/mL (≈ 0.19 µM); IC50 (MCF7; [7]): 54.9 µg/mL (≈ 130 µM); IC50 (SW620; [8]): 0.44 µg/mL (≈ 1.04 µM); IC50 (LOX; [9]): 0.51 µg/mL (≈ 1.21 µM)
3 | Cc1cc([N+](=O)[O-])cc2c(Nc3cccc(Br)c3)c(C#N)cnc12 [Example 105, 4-[(3-Bromophenyl)amino]-8-methyl-6-nitro-3-quinolinecarbonitrile] | > 100 µM | – | 0.001 | 0.13 (≈ 0.339 µM) | 1.84 (≈ 4.8 µM) | 2.09 (≈ 5.45 µM) | 0.06 (≈ 0.157 µM) | 0.72 (≈ 1.88 µM) | –
4 | COc1cc2c(Nc3cccc(N(C)C)c3)c(C#N)cnc2c(OC)c1OC [Example 232, 4-(3-Dimethylamino-phenylamino)-6.7.8-trimethoxy-quinoline-3-carbonitrile] | – | > 79.3 | – | – | – | – | – | – | –
5 | COc1cc2ncc(C#N)c(Nc3cc(Br)c(O)c(Br)c3)c2cc1OC [Example 291, 4-(3,5-Dibromo-4-hydroxy-phenylamino)-6,7-dimethoxy-quinoline-3-carbonitrile] | > 100 µM | 20.9 | – | – | – | – | – | – | –
6 | COc1cc2ncc(C#N)c(Nc3cc(C)ccc3O)c2cc1OC [Example 295, 4-(2-Hydroxy-5-methyl-phenylamino)-6,7-dimethoxy-quinoline-3-carbonitrile] | 50 µM | 29.8 | – | – | – | – | – | – | –
7 | COc1cc2ncc(C#N)c(Nc3cc(Cl)ccc3O)c2cc1OC [Example 290, 4-(5-Chloro-2-hydroxy-phenylamino)-6,7-dimethoxy-quinoline-3-carbonitrile] | 3 µM | 28.1 | – | – | – | – | – | – | –
8 | COc1cc2ncc(C#N)c(Nc3ccc(Sc4ccccc4)c(Cl)c3)c2cc1OC [Example 255, 4-[3-Chloro-4-(phenylthio)phenylamino]-6,7-dimethoxy-3-quinolinecarbonitrile] | – | – | 0.1 | 0.59 (≈ 1.32 µM) | 0.35 (≈ 0.781 µM) | 2.85 (≈ 6.36 µM) | 0.58 (≈ 1.29 µM) | 0.69 (≈ 1.54 µM) | –
9 | C=C(CC(=O)Nc1ccc2ncc(C#N)c(Nc3cccc(Br)c3)c2c1)C(=O)O [Example 186, 4-[[4-[(3-Bromophenyl)amino]-3-cyano-6-quinolinyl]-amino]-2-methylene-4-oxo-butanoic acid] | – | – | 0.1 | 37.6 (≈ 83.3 µM) | 21.5 (≈ 47.6 µM) | 42.5 (≈ 94.2 µM) | 62.6 (≈ 139 µM) | 46.4 (≈ 103 µM) | –
10 | COc1cccc2c(Nc3cccc(N(C)C)c3)c(C#N)cnc12 [Example 277, 4-(3-Dimethylamino-phenylamino)-8-methoxy-quinoline-3-carbonitrile] | > 100 µM | > 94.2 | – | – | – | – | – | – | –
11 | C#Cc1cccc(Nc2c(C#N)cnc3ccc(NC(=O)C=C)cc23)c1 [Example 165, N-{3-Cyano-4-[(3-ethynyphenyl)amino]-6-quinolinyl)-2-propenamide] | > 100 µM | – | 0.0005 | 0.2 (≈ 0.591 µM) | 0.1 (≈ 0.296 µM) | 5.8 (≈ 17.1 µM) | 3 (≈ 8.87 µM) | 0.8 (≈ 2.36 µM) | –
12 | CN(C)CC#CC(=O)Nc1ccc2ncc(C#N)c(Nc3cccc(Br)c3)c2c1 [Example 329, N-[4-[(3-Bromophenyl)amino]-3-cyano-6-quinolinyl]-4-dimethylamino-2-butynamide] | > 100 µM | – | 0.00045 | – | – | – | – | – | IC50 (A431; [5]): 0.22 µg/mL (≈ 0.491 µM); IC50 (SKBR3; [6]): 0.21 µg/mL (≈ 0.468 µM); IC50 (MCF7; [7]): 0.75 µg/mL (≈ 1.67 µM); IC50 (SW620; [8]): 0.03 µg/mL (≈ 0.0669 µM); IC50 (LOX; [9]): 0.58 µg/mL (≈ 1.29 µM)
13 | N#Cc1cnc2ccc(NC(=O)C#CCN3CCOCC3)cc2c1Nc1cccc(Br)c1 [Example 328, N-[4-[(3-Bromophenyl)amino]-3-cyano-6-quinolinyl]-4-morpholino-2-butynamide] | > 100 µM | – | 0.0045 | – | – | – | – | – | IC50 (A431; [5]): 0.19 µg/mL (≈ 0.387 µM); IC50 (SKBR3; [6]): 0.02 µg/mL (≈ 0.0408 µM); IC50 (MCF7; [7]): 0.78 µg/mL (≈ 1.59 µM); IC50 (SW620; [8]): 0.15 µg/mL (≈ 0.306 µM); IC50 (LOX; [9]): 0.33 µg/mL (≈ 0.673 µM)
14 | COc1cc2ncc(C#N)c(Nc3ccc(C)c(O)c3)c2cc1OCCCN1CCOCC1 [Example 128] | – | – | – | – | – | – | – | – | IC50 [2]: 17.8 µM
15 | C=CC(=O)Nc1ccc2ncc(C#N)c(Nc3ccc(Br)cc3)c2c1 [Example 151, N-{4-[(4-Bromophenyl)amino]-3-cyano-6-quinolinyl} -2-propenamide] | – | – | 0.5 | 0.09 (≈ 0.229 µM) | 0.07 (≈ 0.178 µM) | 0.61 (≈ 1.55 µM) | < 0.01 | 0.08 (≈ 0.203 µM) | –
